Source: US10213507B2, “Compositions and methods for treating HIV-associated neurocognitive disorders” (THE FLORIDA INTERNATIONAL UNIVERSITY BOARD OF TRUSTEES, priority 2017, dated 2019)
“Also recorded” adds a separate entry of the source.

Assays:
σ-1 receptor = target: T1, σ-1 receptor (Mus musculus, UniProt O55242); settings: pre-treatment of mice; cited from earlier work
T1 construct: from tissue; host or cells: whole animal (mice), endogenous receptor

[1] = tested on: in-vitro BBB model (brain microvascular endothelial cells, astrocytes and pericytes); assay: In-vitro BBB model integrity (TEER); assay type: cell-based, human; settings: free WA 2 μM in apical chamber, external magnetic field 0.8 T, 3 h
Experimental: (§1) FIGS. 3A-3B provide: A) Effect of WA and MENP on in-vitro BBB integrity: WA (2 μM) and MENPs (100 μg) were added in the upper chamber of the BBB model with magnet (0.8 T) placed underneath the culture plate for 3 h duration. After treatment, Transepithelial Electrical Resistance (TEER) values were calculated and compared with control; B) Aβ1-40 ELISA from supernatant from SHAPP cells: To study WA (2 μM) efficacy and BBB permeability without MENPs, Aβ1-40 specific enzyme-linked immunosorbent assay (ELISA) was performed using supernatant collected from the basal side of the BBB trans-well where SHAPP cells were seeded at the bottom of culture plate. (n=3; NS-Not Significant.)
(§2) In-vitro BBB model was developed using brain microvascular endothelial cells, astrocytes and pericytes. The integrity of BBB was examined by measuring the TEER values before and after addition of free WA (2 μM) and free MENPs (100 μg) to the apical chamber of in vitro BBB model.
Preparation and validation of BBB integrity: Established in vitro BBB model can be used. The BBB model can be constructed using primary endothelial cells (HBMEC), pericytes (HMVP) and astrocytes (HA). BBB formation and intactness can be determined by measuring the TEER using the REMS AutoSampler BBB device and permeability to fluorescein isothiocyanate-dextran (FITC dextran). […]

[2] = tested on: Aβ-secretion in SH-APP cells; assay: WA BBB permeability without MENPs: Aβ1-40 ELISA of SH-APP cells in the basal chamber of the BBB trans-well; assay type: cell-based, human
Experimental: as §1, §2

HIV-1 = assay: HIV infection of CHME-5 microglial cells (p24 ELISA, LTR quantitative real-time PCR); assay type: cell-based; settings: WA 0.5 and 1 μM, 7 dpi
Experimental: (§3) FIGS. 6A-6C show Effect of WA on HIV-1 suppression and its cytotoxicity in microglial (CHME-5) cell±HIV. […] (A) p24 study; (B) LTR and (C) Cytotoxicity study: XTT assay was performed on WA treated CHME-5 cells (n=3; *, p≤0.05; ****, p≤0.001; NS-Not Significant).
(§4) Human microglial cells (CHME-5) were infected with HIV and treated with different concentrations of WA (0.5 and 1 μM). Seven days post-infection (dpi), culture supernatant was used for p24 ELISA and cell pellet was used for the […] (LTR) measurement using quantitative real-time PCR.

CHME-5 cells = assay: XTT cytotoxicity assay in CHME-5 cells; assay type: cell-based; settings: 1 μM WA, 48 hours
Experimental: as §3, §4

[3] = tested on: Aβ-production in SH-APP cells; assay: HIV-induced β-amyloid production in SH-APP cells by flow cytometry; assay type: cell-based, human; settings: HIV 100 ng 7 days, WA 2 μM 48 hours, Aβ 1-40 specific antibody
Experimental: FIGS. 7A-7D show quantitative analysis of β-amyloid production after 7 days of HIV infection and 48 hours of WA treatment (2 μM) on SH-APP (neuroblastoma cell line) using flow cytometry. An increase in β-amyloid production is observed in cells treated with B) HIV-100 ng; compared to A) Control.

HIV = HIV LTR detection in HIV-exposed SH-APP cells; assay type: cell-based; settings: WA 2 μm, HIV 100 ng, 1 dpi; 30,000 copies with HIV alone
Description: (n=3; *, p≤0.05; **, p≤0.01; and ***, p≤0.001.)
AβPP-transfected SH-APP cells are susceptible to HIV infection.

[4] = tested on: Aβ secretion by SH-APP cells; assay: Aβ 1-40 ELISA of culture supernatants of WA treated SH-APP cells; assay type: cell-based, human
Experimental: (n=3; *, p≤0.05; NS-Not Significant).
Human neuroblastoma cells transfected with APP gene (SH-APP) were cultured with different concentrations of WA (0.5 to 2.5 μM) and the culture supernatants were tested for Aβ 1-40 by ELISA.

SH-APP cells = assay: MTT cytotoxicity assay in SH-APP cells; assay type: cell-based, human; settings: WA 0.5 to 2.5 μM, 48 hours
[5] = Binding of miR-107 to MENPs; assay type: physicochemical; settings: 100 nM miR-107, 100 μg MENPs, PBS pH 7.4, 30 minutes
Experimental: (§5) FIGS. 2A-2B provide miR-107 binding and release. A) % binding of miR-107 with MENP with respect to different concentrations; B) Release kinetics of miR-107 from MENP surface as a function of externally applied alternating current magnetic field strength (60 and 80 Oe) at different time points (10, 20 and 30 min).
(§6) Binding kinetics with respect to different concentrations of miR-107 was performed using 100 μg of MENPs (FIG. 2A). Sample were incubated in phosphate buffered saline (PBS) (pH-7.4) and kept on vertical rotator under constant rotation (200 rpm) for 30 minutes. […] Release kinetics of miR-107 from MENPs was studied using UV spectroscopy at 260 nm. 100 nM of miR-107 was incubated with 100 μg of MENPs in 1 mL PBS (pH 7.4) for 30 mins and its release kinetics performed using alternating current magnetic field via electromagnetic coil at various time points (i.e., 10, 20, and 30 minutes).

[6] = Release of miR-107 from MENPs under alternating current magnetic field (UV spectroscopy at 260 nm); assay type: physicochemical; settings: 30 mins
Experimental: as §5, §6

T1 sequence (O55242 whole entry): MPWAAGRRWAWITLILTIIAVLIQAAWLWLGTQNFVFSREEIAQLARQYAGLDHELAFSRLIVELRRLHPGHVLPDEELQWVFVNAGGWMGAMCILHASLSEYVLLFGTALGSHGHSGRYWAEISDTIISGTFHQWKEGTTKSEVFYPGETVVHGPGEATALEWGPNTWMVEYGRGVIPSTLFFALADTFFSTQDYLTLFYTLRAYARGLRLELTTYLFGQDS

CN1CCN(CCc2ccc(Cl)c(Cl)c2)CC1.Cl.Cl [BD1063, 1-[2-(3,4-Dichlorophenyl)ethyl]-4-methylpiperazine dihydrochloride]
cocaine-induced convulsions (σ-1 receptor): significantly attenuated
cocaine-induced locomotor stimulatory effects (σ-1 receptor): significantly attenuated

CC1=C(CO)C(=O)O[C@@H]([C@@H](C)[C@H]2CC[C@H]3[C@@H]4C[C@H]5O[C@]56[C@@H](O)C=CC(=O)[C@]6(C)[C@H]4CC[C@]23C)C1 [WA, 5,6-Epoxy-4,27-dihydroxy-1-oxowitha-2,24-dienolide]
TEER values (BBB integrity) [1]: no difference in TEER values
Aβ-secretion in SH-APP cells in basal chamber vs untreated control ([2]; WA 2 μM without MENP in the apical chamber): no changes in the Aβ-secretion
crossing of the BBB ([2]; free WA 2 μM, not bound to MENP, apical chamber): could not cross the BBB
HIV-1 replication, LTR levels (HIV-1; cell pellet): significant suppression
HIV-1 replication, p24 levels (HIV-1; culture supernatant): significant suppression
cell viability (CHME-5 cells): > 80%
HIV-induced Aβ levels [3]: significantly decreased
HIV induced LTR copies (HIV): 400 copies
β-Amyloid production (Aβ1-40 ELISA) ([4]; 2 µM WA): significantly attenuates
Aβ secretion (Aβ 1-40) ([4]; WA 0.5 to 2.5 μM): dose dependent decrease
cytotoxicity (SH-APP cells): do not show any cytotoxic effects; also recorded: no significant cytotoxicity

miR-107: microRNA 107, inhibitor of BACE-1 expression; SEQ ID NO: 1 (pre-miRNA), SEQ ID NO: 2 (mature) (AGCAGCAUUGUACAGGGCUAUCA; listed as RNA, chemistry not given here; listed as Homo sapiens)
maximum miR-107 binding to MENPs [5]: 70%
release of miR-107 from MENPs ([6]; 60 Oe alternating current magnetic field): 75%
release of miR-107 from MENPs ([6]; 100 Hz, 80 Oe alternating current magnetic field): ~100%
